IC50 data for 26 compounds are collected here from patent publication US11795177B2, “Substituted quinoline analogs as aldehyde dehydrogenase 1A1 (ALDH1A1) inhibitors” (THE UNITED STATES OF AMERICA, AS REPRESENTED BY THE …, priority 2017, dated 2023).

Broadly, the IC50 is the concentration that gives 50% inhibition. A lower IC50 goes with inhibition by little substance.

SMILES strings stand for the structures. Where only a bound is given, the exact number is not on record here.

The test system of the test is MIA PaCa-2 cells. Description: MIA PaCa2 cell-based assay (1,536-well high-content imaging ALDEFLUOR assay). Set-up: species or system human. The following applies: Homo sapiens, 0.5 h, ALDEFLUOR BAAA substrate 500 nM, 30 minutes. As for the experimental part: Example 359. MIA PaCa2 Cell-Based Assay (In Vitro Assay)
1,536-Well High-Content Imaging ALDEFLUOR Assay
The ALDEFLUOR™ kit was purchased from […] Technologies (Vancouver, Canada; #01700). MIA PaCa-2 cells (5 μL; 1,000 cells/well) were dispensed into black, optical quality (cyclic olefin copolymer) clear bottom, medium binding TC treated 1,536-well plates (Aurora Microplates, Whitefish Mont.) using a Multidrop Combi dispenser (ThermoFisher) and incubated overnight (37° C., 5% CO2, 85% RH). Media (RPMI 1640 (Life Technologies, Carlsbad, Calif.), supplemented with 2 mM L-Glutamine (Life Technologies), 10% HyClone™ fetal bovine serum (FBS, GE Healthcare, Piscataway, N.J.) and 100 U/mL penicillin and 100 μg/mL streptomycin (Life Technologies)) was subsequently removed by centrifuging plates upside down using a plate adaptor to collect media. A solution of BAAA substrate ([…] Technologies) and Hoechst 33342 (ThermoFisher, final concentrations of 500 nM and 0.5 nM, respectively) in ALDEFLUOR™ buffer ([…] Technologies #01700) was dispensed onto cells using a Multidrop Combi followed by immediate transfer (23 nL) of compound or control solutions using a Wako Pin-tool (final percentage of DMSO in the cell plates was 0.5%). Unless otherwise noted, all compounds were assayed as 16-point dilutions spanning a final concentration range of 1.4 nM to 47.8 μM. The neutral and positive assay controls were DMSO and DEAB (4.6 μM), respectively. Cells were incubated for 30 minutes or the indicated amount of time at 37° C., 5% CO2, 85% RH to allow the conversion of BAAA into BAA. Supernatant was subsequently removed by centrifugation as described above, then ALDEFLUOR™ buffer (3 μl) was dispensed by Multidrop Combi before imaging on an IN Cell 2200 (GE Healthcare).
The above assay was modified for an online robotic screening system. After cell plating and overnight incubation, 4 μL of media were removed using a 64-tip metal aspirator head on a Wako aspirator station, leaving 1 μL remaining in the well, followed by a 4 μL dispense of BAAA and Hoechst 33342 in ALDEFLUOR™ buffer, for a final concentration of 500 nM and 0.5 nM, respectively Immediately following the dispense, 23 nL of compound or control solutions were transferred using a Wako Pin-tool. Cells were incubated for 30 minutes at 37° C., 5% CO2, 85% RH, followed by a 4 μL media removal using the Wako aspirator, and a subsequent 3 μL addition of ALDEFLUOR™ buffer. Plates were then immediately read on the IN Cell 2200 as described below.
Image Acquisition and Analysis
For images captured on the IN Cell 2200 widefield automated microscope, a 10×0.45 NA Plan Apo objective lens was used to capture the entire well of the 1,536-well plate using standard DAPI (390/18×, 432/48 m) and FITC (475/28×, 525/48 m) filter sets at 50 msec and 100 msec exposures, respectively. Images were subsequently analyzed using IN Cell Investigator v1.6.2 analysis software's canned Multi-Target Analysis algorithm (GE Healthcare). Hoechst stained nuclei were identified using top hat segmentation with a minimum area of 75 μm^2 and sensitivity of 93. BAA-retaining cells captured via FITC channel, were identified using multiscale top hat segmentation with a minimum area of 100 μm^2 and a sensitivity setting of 16. […] Data were plotted using GraphPad Prism software (GraphPad, San Diego, Calif.).

On to `CC1(C#N)CCN(c2c(C(=O)N3CCN(S(C)(=O)=O)CC3)cnc3ccc(F)cc23)CC1` [Example 86, 1-(6-fluoro-3-(4-(methylsulfonyl)piperazine-1-carbonyl)quinolin-4-yl)-4-methylpiperidine-4-carbonitrile], for which the IC50 lay in the range of 1 to 10 µM. For `O=C(c1cnc2ccc(F)cc2c1N1CCC(F)(F)CC1)N1CCN(C(=O)C2CC2)CC1` [Example 63, (4-(cyclopropanecarbonyl)piperazin-1-yl)(4-(4,4-difluoropiperidin-1-yl)-6-fluoroquinolin-3-yl)methanone], the IC50 is > 10 µM. `Cn1ncc2c(N3CCC(C)(C#N)CC3)c(C(=O)N3CCN(S(C)(=O)=O)CC3)cnc21` [Example 206, 4-methyl-1-(1-methyl-5-(4-(methylsulfonyl)piperazine-1-carbonyl)-1H-pyrazolo[3,4-b]pyridin-4-yl)piperidine-4-carbonitrile] returned an IC50 of 1 to 10 µM. In the case of `COc1ccc2ncc(C(=O)N3CCN(C(=O)C4CC4)CC3)c(N3CCC(=O)CC3)c2c1` [Example 67, 1-(3-(4-(cyclopropanecareonyl)piperazine-1-carbonyl)-6-methoxyquinolin-4-yl)piperidin-4-one] it was > 10 µM. The result for `CS(=O)(=O)N1CCN(C(=O)c2cnc3ccc(F)cc3c2N2CCC(C#N)CC2)CC1` [Cpd. 305, 1-(6-fluoro-3-(4-(methylsulfonyl)piperazine-1-carbonyl)quinolin-4-yl)piperidine-4-carbonitrile] reads > 10 µM; that for `N#CC1(c2ccccc2)CCN(c2c(C(=O)N3CCN(C(=O)C4CC4)CC3)cnc3ccc(Cl)cc23)CC1` [Cpd. 313, 1-(6-chloro-3-(4-(cyclopropanecarbonyl)piperazine-1-carbonyl)quinolin-4-yl)-4-phenylpiperidine-4-carbonitrile], < 0.5 µM; that for `Cc1ccc2ncc(C(=O)N3CCN(C(=O)C4CC4)CC3)c(N3CCC4(CC3)OCCO4)c2c1` [Example 30, (4-(cyclopropanecarbonyl)piperazin-1-yl)(6-methyl-4-(1,4-dioxa-8-azaspiro[4.5]decan-8-yl)quinolin-3-yl)methanone], 1 to 10 µM. The result for `CC1(C)CCN(c2c(C(=O)N3CCN(C(=O)C4CC4)CC3)cnc3ccc(F)cc23)CC1` [Example 65, (4-(cyclopropanecarbonyl)piperazin-1-yl)(4-(4,4-dimethylpiperidin-1-yl)-6-fluoroquinolin-3-yl)methanone] reads 1 to 10 µM; that for `CS(=O)(=O)N1CCN(C(=O)c2cnc3c(F)cc(F)cc3c2N2CCC(C#N)(c3ccccc3)CC2)CC1` [Cpd. 320, 1-(6,8-difluoro-3-(4-(methylsulfonyl)piperazine-1-carbonyl)quinolin-4-yl)-4-phenylpiperidine-4-carbonitrile], < 0.5 µM. `COc1ccc2c(N3CCC(C#N)(c4ccccc4)CC3)c(C(=O)N3CCN(S(C)(=O)=O)CC3)cnc2c1` [Cpd. 318, 1-(7-methoxy-3-(4-(methylsulfonyl)piperazine-1-carbonyl)quinolin-4-yl)-4-phenylpiperidine-4-carbonitrile]: the IC50 was < 0.5 µM. `CN(C)C(=O)N1CCN(C(=O)c2cnc3ccc(F)cc3c2N2CCC(C#N)(c3ccccc3)CC2)CC1` [Example 272, 4-(4-(4-cyano-4-phenylpiperidin-1-yl)-6-fluoroquinoline-3-carbonyl)-N,N-dimethylpiperazine-1-carboxamide]: the IC50 was < 0.5 µM.

Compound `O=C(c1cnc2cc(F)c(F)cc2c1N1CCC2(CC1)OCCO2)N1CCN(C(=O)C2CC2)CC1` [Example 122, (4-(cyclopropanecarbonyl)piperazin-1-yl)(6,7-difluoro-4-(1,4-dioxa-8-azaspiro[4.5]decan-8-yl)quinolin-3-yl)methanone] had a concentration for half-maximal inhibition (IC50) of 1 to 10 µM. In the case of `CC1(C#N)CCN(c2c(C(=O)N3CCN(C(=O)C4CC4)CC3)cnc3ccc(F)cc23)CC1` [Example 64, 1-(3-(4-(cyclopropanecarbonyl)piperazine-1-carbonyl)-6-fluoroquinolin-4-yl)-4-methylpiperidine-4-carbonitrile] it was 1 to 10 µM. For the compound `CN(C)C(=O)N1CCN(C(=O)c2cnc3ccc(F)cc3c2-c2ccc(C3(C#N)CC3)cc2)CC1` [Example 265, 4-(4-(4-(1-cyanocyclopropyl)phenyl)-6-fluoroquinoline-3-carbonyl)-N,N-dimethylpiperazine-1-carboxamide], the IC50 was < 0.5 µM.

On to `CC(C)(C#N)c1ccc(-c2c(C(=O)N3CCN(C(=O)C4CC4)CC3)cnc3ccc(F)cc23)cc1` [Example 264, 2-(4-(3-(4-(cyclopropanecarbonyl)piperazine-1-carbonyl)-6-fluoroquinolin-4-yl)phenyl)-2-methylpropanenitrile], for which the IC50 is < 0.5 µM.

In the case of `CC1(C#N)CCN(c2c(C(=O)N3CCN(S(C)(=O)=O)CC3)cnc3ccsc23)CC1` [Example 234, 4-methyl-1-(6-(4-(methylsulfonyl)piperazine-1-carbonyl)thieno[3,2-b]pyridin-7-yl)piperidine-4-carbonitrile], the IC50 is 1 to 10 µM.

As for `O=C(c1cnc2ccc(F)cc2c1N1CCCCCC1)N1CCN(C(=O)C2CC2)CC1` [Example 71, (4-(azepan-1-yl)-6-fluoroquinolin-3-yl)(4-(cyclopropanecarbonyl)piperazin-1-yl)methanone], the IC50 is 1 to 10 µM.

Turning to `O=C(c1cnc2ccc(F)cc2c1N1CCC(F)CC1)N1CCN(C(=O)C2CC2)CC1` [Example 76, (4-(cyclopropanecarbonyl)piperazin-1-yl)(6-fluoro-4-(4-fluoropiperidin-1-yl)quinolin-3-yl)methanone], the IC50 was > 10 µM.

For `CS(=O)(=O)N1CCN(C(=O)c2cnc3ccsc3c2-c2ccc(C3(C#N)CC3)cc2)CC1` [Example 286], the IC50 was < 0.5 µM. The result for `CS(=O)(=O)N1CCN(C(=O)c2cnc3ccc(F)cc3c2N2CCC(C#N)(c3ccccc3)CC2)CC1` [Example 209, 1-(6-fluoro-3-(4-(methylsulfonyl)piperazine-1-carbonyl)quinolin-4-yl)-4-phenylpiperidine-4-carbonitrile] reads < 0.5 µM; that for `O=C(c1cnc2ccc(F)cc2c1N1C[C@H]2CCCC[C@H]2C1)N1CCN(C(=O)C2CC2)CC1` [Example 83, (4-(cyclopropanecarbonyl)piperazin-1-yl)(6-fluoro-4-((3aR*,7aS*)-hexahydro-1H-isoindol-2(3H)-yl)quinolin-3-yl)methanone], > 10 µM. Regarding `O=C(c1cnc2ccc(F)cc2c1N1CC2(CCCCC2)C1)N1CCN(C(=O)C2CC2)CC1` [Example 80, (4-(cyclopropanecarbonyl)piperazin-1-yl)(6-fluoro-4-(2-azaspiro[3.5]nonan-2-yl)quinolin-3-yl)methanone], the IC50 was > 10 µM. In the case of `CS(=O)(=O)N1CCN(C(=O)c2cnc3ccc(F)cc3c2-c2ccc(C3(C#N)CC3)cc2F)CC1` [Cpd. 315, 1-(3-fluoro-4-(6-fluoro-3-(4-(methylsulfonyl)piperazine-1-carbonyl)quinolin-4-yl)phenyl)cyclopropanecarbonitrile] it was < 0.5 µM. In the case of `CS(=O)(=O)N1CCN(C(=O)c2cnc3ccc(F)cc3c2-c2ccc(C3(C#N)CCC3)cc2)CC1` [Cpd. 308, 1-(4-(6-fluoro-3-(4-(methylsulfonyl)piperazine-1-carbonyl)quinolin-4-yl)phenyl)cyclobutanecarbonitrile] it was < 0.5 µM. On to `CC(C)C(=O)N1CCN(C(=O)c2cnc3ccc(F)cc3c2N2CCC(C)(C#N)CC2)CC1` [Example 92, 1-(6-fluoro-3-(4-isobutyrylpiperazine-1-carbonyl)quinolin-4-yl)-4-methylpiperidine-4-carbonitrile], for which the IC50 lay in the range of 1 to 10 µM.

`CC1(C#N)CCN(c2c(C(=O)N3CCN(S(=O)(=O)C4CC4)CC3)cnc3ccc(F)cc23)CC1` [Example 85, 1-(3-(4-(cyclopropylsulfonyl)piperazine-1-carbonyl)-6-fluoroquinolin-4-yl)-4-methylpiperidine-4-carbonitrile]: the IC50 is > 10 µM.
